The record followed here is US12187742B2 (XRAD Therapeutics, Inc., priority 2018, dated 2025).

Molecules are shown by their SMILES. Counter-ions that a name gives are not always drawn. Where only a bound is given, the exact number is not on record here.

One test concerns the target ATM (Homo sapiens (Human), UniProt Q13315). Briefly: ATM in Cell Western Assay (pKAP1 in etoposide-treated MCF-7 cells). The test is classed as cell-based. The essentials: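 After paraformaldehyde fixation and Triton X-100 permeabilization, immunostained plates were read by infrared scanning (ODYSSEY CLx). Compound was given as 10 doses, 3-fold dilutions from a 1 μM final top concentration.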

The next test deals with DNA-PK (Homo sapiens (Human), UniProt P78527). The test is described as follows: DNA-PK Enzyme-Linked Immunosorbent Assay (phosphorylation of GST-p53 (1-101) peptide). In kind it is biochemical. The following applies: ELISA. The essentials: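 Inhibition measured by 450 nm absorbance after HRP/TMB detection of phospho-Ser15 on immobilized GST-p53 (1-101). The kinase reaction used 0.1 μg/mL DNA-PK and 20 μM ATP, 1 h at 25 °C. Ten 3-fold compound dilutions, top final concentration 100 nM.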

Setting [1] is: MCF-7 cells, etoposide 100 μM, 1 hr, pKAP1 readout.
The mark [2] stands for this setting: pKAP1 in etoposide-treated MCF-7 cells.

Sequence of ATM (Q13315 whole entry): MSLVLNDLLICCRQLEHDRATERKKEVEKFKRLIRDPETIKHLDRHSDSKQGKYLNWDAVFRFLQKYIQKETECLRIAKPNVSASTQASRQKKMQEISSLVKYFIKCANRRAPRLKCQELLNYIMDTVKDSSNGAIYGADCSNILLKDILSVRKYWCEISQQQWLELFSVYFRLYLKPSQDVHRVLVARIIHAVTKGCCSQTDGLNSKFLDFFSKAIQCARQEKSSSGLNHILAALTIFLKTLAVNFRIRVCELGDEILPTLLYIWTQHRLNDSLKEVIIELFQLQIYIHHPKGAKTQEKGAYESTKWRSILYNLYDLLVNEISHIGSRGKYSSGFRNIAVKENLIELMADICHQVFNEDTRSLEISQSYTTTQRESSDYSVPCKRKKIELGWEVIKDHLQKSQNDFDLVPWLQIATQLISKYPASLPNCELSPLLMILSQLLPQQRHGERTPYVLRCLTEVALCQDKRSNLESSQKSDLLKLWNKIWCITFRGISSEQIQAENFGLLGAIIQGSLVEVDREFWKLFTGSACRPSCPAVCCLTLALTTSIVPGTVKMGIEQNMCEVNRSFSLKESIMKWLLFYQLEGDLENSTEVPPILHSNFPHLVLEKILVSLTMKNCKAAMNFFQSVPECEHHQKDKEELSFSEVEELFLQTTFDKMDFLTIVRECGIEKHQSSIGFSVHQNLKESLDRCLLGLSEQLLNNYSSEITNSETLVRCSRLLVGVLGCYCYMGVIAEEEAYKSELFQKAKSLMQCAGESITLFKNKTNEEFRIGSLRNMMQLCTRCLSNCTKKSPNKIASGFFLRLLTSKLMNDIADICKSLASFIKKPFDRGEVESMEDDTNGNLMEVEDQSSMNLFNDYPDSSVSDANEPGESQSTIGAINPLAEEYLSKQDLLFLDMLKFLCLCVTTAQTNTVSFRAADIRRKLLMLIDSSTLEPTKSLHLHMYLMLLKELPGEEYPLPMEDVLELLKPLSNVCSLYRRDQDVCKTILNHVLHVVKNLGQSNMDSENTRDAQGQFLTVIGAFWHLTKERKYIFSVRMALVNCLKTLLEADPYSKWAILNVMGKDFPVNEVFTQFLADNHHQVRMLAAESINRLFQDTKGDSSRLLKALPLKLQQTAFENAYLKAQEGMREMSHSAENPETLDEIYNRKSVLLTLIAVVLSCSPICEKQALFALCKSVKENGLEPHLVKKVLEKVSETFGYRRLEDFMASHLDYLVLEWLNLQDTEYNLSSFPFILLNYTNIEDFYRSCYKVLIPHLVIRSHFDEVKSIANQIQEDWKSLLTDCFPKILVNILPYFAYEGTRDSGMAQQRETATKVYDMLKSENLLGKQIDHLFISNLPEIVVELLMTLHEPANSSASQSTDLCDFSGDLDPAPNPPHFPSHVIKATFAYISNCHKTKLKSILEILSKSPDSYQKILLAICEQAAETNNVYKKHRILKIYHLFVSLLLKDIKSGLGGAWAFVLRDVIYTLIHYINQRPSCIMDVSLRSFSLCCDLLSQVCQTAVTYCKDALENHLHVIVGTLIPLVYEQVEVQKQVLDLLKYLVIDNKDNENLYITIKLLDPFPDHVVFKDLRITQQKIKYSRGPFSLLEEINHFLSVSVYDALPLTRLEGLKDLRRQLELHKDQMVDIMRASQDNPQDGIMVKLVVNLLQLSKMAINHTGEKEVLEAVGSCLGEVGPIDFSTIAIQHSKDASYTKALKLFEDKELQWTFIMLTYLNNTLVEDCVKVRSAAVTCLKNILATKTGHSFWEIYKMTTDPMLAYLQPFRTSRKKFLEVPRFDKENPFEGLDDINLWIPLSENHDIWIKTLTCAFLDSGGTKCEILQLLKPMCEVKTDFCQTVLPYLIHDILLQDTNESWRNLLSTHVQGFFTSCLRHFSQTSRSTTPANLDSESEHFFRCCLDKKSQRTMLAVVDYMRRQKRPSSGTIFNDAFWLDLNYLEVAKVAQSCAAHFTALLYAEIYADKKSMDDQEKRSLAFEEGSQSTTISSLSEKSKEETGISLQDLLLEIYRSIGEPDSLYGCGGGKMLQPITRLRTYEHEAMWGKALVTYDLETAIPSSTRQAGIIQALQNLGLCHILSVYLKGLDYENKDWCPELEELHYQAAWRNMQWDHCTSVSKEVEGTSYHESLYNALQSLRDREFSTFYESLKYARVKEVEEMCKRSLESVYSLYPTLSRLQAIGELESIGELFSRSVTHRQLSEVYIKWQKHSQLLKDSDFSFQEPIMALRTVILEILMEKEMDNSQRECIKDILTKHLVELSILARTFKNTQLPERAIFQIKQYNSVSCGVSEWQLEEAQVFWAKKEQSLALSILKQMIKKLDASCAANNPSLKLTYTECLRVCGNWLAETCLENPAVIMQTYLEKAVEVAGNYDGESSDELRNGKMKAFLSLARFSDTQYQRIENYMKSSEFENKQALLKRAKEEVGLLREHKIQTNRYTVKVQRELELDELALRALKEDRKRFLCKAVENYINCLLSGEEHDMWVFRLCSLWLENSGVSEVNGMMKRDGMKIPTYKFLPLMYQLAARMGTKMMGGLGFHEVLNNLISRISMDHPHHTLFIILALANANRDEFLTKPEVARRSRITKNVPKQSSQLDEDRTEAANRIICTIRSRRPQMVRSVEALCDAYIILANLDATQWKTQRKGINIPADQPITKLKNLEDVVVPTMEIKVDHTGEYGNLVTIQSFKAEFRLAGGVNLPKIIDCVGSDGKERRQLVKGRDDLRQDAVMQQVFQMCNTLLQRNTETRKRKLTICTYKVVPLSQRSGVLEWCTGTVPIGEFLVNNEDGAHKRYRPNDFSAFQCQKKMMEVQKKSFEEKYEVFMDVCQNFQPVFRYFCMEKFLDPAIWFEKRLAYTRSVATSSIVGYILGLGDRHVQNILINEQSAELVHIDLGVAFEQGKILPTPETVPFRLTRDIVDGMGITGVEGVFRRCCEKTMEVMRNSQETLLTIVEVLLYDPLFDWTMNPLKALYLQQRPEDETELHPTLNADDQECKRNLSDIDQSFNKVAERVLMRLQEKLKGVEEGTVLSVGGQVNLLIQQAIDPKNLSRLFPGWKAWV

For the compound `CN1CCCN(c2ncc(-c3ccc4ncc5c(c4c3)C3(CC3)C(=O)N5C)cc2NS(=O)(=O)c2ccccc2)CC1` [Example 53, N-(2-(4-Methyl-1,4-diazepan-1-yl)-5-(3′-methyl-2′-oxo-2′,3′-dihydrospiro[cyclopropane-1,1′-pyrrolo[2,3-c]quinolin]-8′-yl)pyridin-3-yl)benzenesulfonamide], the IC50 at ATM (setting [1]) and on DNA-PK (ATP 20 μM) was 1 to 100 nM throughout.
Take `COCCN(C)CCCOc1ncc(-c2cc3c4c(cnc3cc2F)N(C)C(=O)C42CCC2)cc1NS(=O)(=O)N1CCOCC1` [Example 294, N-(5-(7′-Fluoro-3′-methyl-2′-oxo-2′,3′-dihydrospiro[cyclobutane-1,1′-pyrrolo[2,3-c]quinolin]-8′-yl)-2-(3-((2-methoxyethyl)(methyl)amino)propoxy)pyridin-3-yl)morpholine-4-sulfonamide]: the half-inhibitory concentration (IC50) against ATM (setting [1]) and on DNA-PK (ATP 20 μM) was 1 to 100 nM throughout.
On to `CN(C)CCCOc1ncc(-c2ccc3ncc4c(c3c2)C2(CC(F)C2)C(=O)N4C)cc1NS(C)(=O)=O` (stereo not drawn) [Example 262, N-(2-(3-(Dimethylamino)propoxy)-5-(3-fluoro-3′-methyl-2′-oxo-2′,3′-dihydrospiro[cyclobutane-1,1′-pyrrolo[2,3-c]quinolin]-8′-yl)pyridin-3-yl)methanesulfonamide], for which the IC50 against ATM (setting [1]) and against DNA-PK (ATP 20 μM) was 1 to 100 nM in each case.
As for `CNCCOc1ncc(-c2ccc3ncc4c(c3c2)C2(CCC2)C(=O)N4C)cc1NS(=O)(=O)c1ccccc1` [Example 250, N-(5-(3′-Methyl-2′-oxo-2′,3′-dihydrospiro[cyclobutane-1,1′-pyrrolo[2,3-c]quinolin]-8′-yl)-2-(2-(methylamino)ethoxy)pyridin-3-yl) benzenesulfonamide], the IC50 (as a rule, the concentration needed to halve the response being measured) on ATM (setting [1]) is 1 to 100 nM; against DNA-PK (ATP 20 μM), less than 0.5 nM.
`CC1CCN(S(=O)(=O)Nc2cc(-c3ccc4ncc5c(c4c3)C3(CCC3)C(=O)N5C)cnc2OCCCN(C)C)CC1` [Example 165, N-(2-(3-(Dimethylamino)propoxy)-5-(3′-methyl-2′-oxo-2′,3′-dihydrospiro[cyclobutane-1,1′-pyrrolo[2,3-c]quinolin]-8′-yl)pyridin-3-yl)-4-methylpiperidine-1-sulfonamide]: the IC50 against ATM (setting [1]) and against DNA-PK (ATP 20 μM) was 1 to 100 nM each time.
Consider `CN(C)CCCOc1ncc(-c2ccc3ncc4c(c3c2)C2(CCC2)C(=O)N4C)cc1NS(=O)(=O)N(C)C` [Example 149, 8′-{6-[3-(Dimethylamino)propoxy]-5-[(dimethylsulfamoyl)amino]pyridine-3-yl}-3′-methyl-2′,3′-dihydrospiro[cyclobutane-1,1′-pyrrolo[2,3-c]quinoline]-2′-one hydrochloride], for which the IC50 against ATM (setting [1]) is less than 0.5 nM; on DNA-PK (ATP 20 μM), 0.5 to 1 nM.
The corresponding values for `CN(C)CCCOc1ncc(-c2ccc3ncc4c(c3c2)C2(CC2)C(=O)N4C)cc1NS(=O)(=O)C1CCC1` [Example 69, N-(2-(3-(Dimethylamino)propoxy)-5-(3′-methyl-2′-oxo-2′,3′-dihydrospiro[cyclopropane-1,1′-pyrrolo[2,3-c]quinolin]-8′-yl)pyridin-3-yl)cyclobutanesulfonamide] are 1 to 100 nM and 1 to 100 nM.
With `CN1C(=O)C2(CCC2)c2c1cnc1cc(F)c(-c3cnc(OCCCN4CCC(F)CC4)c(NS(C)(=O)=O)c3)cc21` [Example 297, N-(5-(7′-Fluoro-3′-methyl-2′-oxo-2′,3′-dihydrospiro[cyclobutane-1,1′-pyrrolo[2,3-c]quinolin]-8′-yl)-2-(3-(4-fluoropiperidin-1-yl)propoxy)pyridin-3-yl)methanesulfonamide hydrochloride], the IC50 against ATM (setting [1]) and at DNA-PK (ATP 20 μM) was 1 to 100 nM each time.
`CN1C(=O)C2(CCC2)c2c1cnc1ccc(-c3cnc(OCCCN4CCCC4)c(NS(C)(=O)=O)c3)cc21` [Example 236, N-(5-(3′-Methyl-2′-oxo-2′,3′-dihydrospiro[cyclobutane-1,1′-pyrrolo[2,3-c]quinolin]-8′-yl)-2-(3-(pyrrolidin-1-yl)propoxy)pyridin-3-yl)methanesulfonamide]: the IC50 against ATM (setting [1]) was 1 to 100 nM; against DNA-PK (ATP 20 μM) it was 0.5 to 1 nM.
For the compound `COc1ncc(-c2ccc3ncc4c(c3c2)C2(CC2)C(=O)N4C)cc1NS(=O)(=O)c1cccc(Cl)c1` [Example 9, 3-Chloro-N-(2-methoxy-5-(3′-methyl-2′-oxo-2′,3′-dihydrospiro [cyclopropane-1,1′-pyrrolo[2,3-c]quinolin]-8′-yl)pyridin-3-yl)benzenesulfonamide], the IC50 at ATM (setting [1]) was 1 to 100 nM; against DNA-PK (ATP 20 μM), less than 0.5 nM.
As for `CN1CCN(c2ncc(-c3ccc4ncc5c(c4c3)C3(CCC3)C(=O)N5C)cc2NS(=O)(=O)N(C)C)CC1` [Example 230, 8′-{5-[(Dimethylsulfamoyl)amino]-6-(4-methylpiperazin-1-yl)pyridin-3-yl}-3′-methyl-2′,3′-dihydrospiro[cyclobutane-1,1′-pyrrolo[2,3-c]quinoline]-2′-one], the IC50 against ATM (setting [1]) was 1 to 100 nM; against DNA-PK (ATP 20 μM), less than 0.5 nM.
The corresponding values for `CN1C(=O)C2(CC2)c2c1cnc1ccc(-c3cnc(OCCCN4CCCCC4)c(NS(=O)(=O)C4CC4)c3)cc21` [Example 68, N-(5-(3′-Methyl-2′-oxo-2′,3′-dibydrospiro[cyclopropane-1,1′-pyrrolo[2,3-c]quinolin]-8′-yl)-2-(3-(piperidin-1-yl)propoxy)pyridin-3-yl)cyclopropanesulfonamide] are 1 to 100 nM and less than 0.5 nM.
For the compound `CO[C@H]1C[C@@]2(C1)C(=O)N(C)c1cnc3cc(F)c(-c4cnc(OCCNC(C)C)c(NS(=O)(=O)C5CC5)c4)cc3c12` [Example 388, trans-N-{5-(7′-Fluoro-3-methoxy-3 methyl-2′-oxo-2′,3′-dihydrospiro [cyclobutane-1,1′-pyrrolo[2,3-c]quinolin]-8′-yl)-2-(2-(isopropylamino)ethoxy)pyridin-3-yl)cyclopropanesulfonamide], the IC50 against ATM (setting [2]) and against DNA-PK (20 μM ATP) was 1 to 100 nM each time.
As to `CN1C(=O)C2(CCC2)c2c1cnc1ccc(-c3cnc(OCCCN4CCCCC4)c(NS(=O)(=O)C(F)F)c3)cc21` [Example 302, 1,1-Difluoro-N-(5-(3-methyl-2′-oxo-2′,3′-dihydrospiro[cyclobutane-1,1′-pyrrolo[2,3-c]quinolin]-8-yl)-2-(3-(piperidin-1-yl)propoxy)pyridin-3-yl)methanesulfonamide], the IC50 against ATM (setting [1]) was 1 to 100 nM; on DNA-PK (ATP 20 μM), less than 0.5 nM.
On to `CN(C)CCCOc1ncc(-c2ccc3ncc4c(c3c2)C2(CCC2)C(=O)N4C)cc1NS(=O)(=O)c1ccsc1` [Example 272, N-(2-(3-(Dimethylamino)propoxy)-5-(3′-methyl-2′-oxo-2′,3′-dihydrospiro [cyclobutane-1,1′-pyrrolo[2,3-c]quinolin]-8′-yl)pyridin-3-yl) thiophene-3-sulfonamide], for which the IC50 at ATM (setting [1]) fell in the range of 0.5 to 1 nM; against DNA-PK (ATP 20 μM), 1 to 100 nM.
On to `CCOC[C@H]1C[C@]2(C1)C(=O)N(C)c1cnc3cc(F)c(-c4cnc(OCCNC(C)C)c(NS(C)(=O)=O)c4)cc3c12` [Example 406, cis-N-(5-(3-(Ethoxymethyl)-7′-fluoro-3′-methyl-2′-oxo-2′,3′-dihydrospiro[cyclobutane-1,1′-pyrrolo[2,3-c]quinolin]-8′-yl)-2-(2-(isopropylamino)ethoxy)pyridin-3-yl)methanesulfonamide], for which the values for the IC50 on ATM (setting [2]) and on DNA-PK (20 μM ATP) were 1 to 100 nM and 0.5 to 1 nM, respectively.
For `CN(C)CCCCOc1ncc(-c2ccc3ncc4c(c3c2)C2(CC2)C(=O)N4C)cc1NS(=O)(=O)c1ccccc1` [Example 35, N-(2-(4-(Dimethylamino)butoxy)-5-(3′-methyl-2′-oxo-2′,3′-dihydrospiro [cyclopropane-1,1′-pyrrolo[2,3-c]quinolin]-8′-yl)pyridin-3-yl)benzenesulfonamide], the IC50 at ATM (setting [1]) is 1 to 100 nM; on DNA-PK (ATP 20 μM), 0.5 to 1 nM.
In the case of `CN1C(=O)C2(CCC2)c2c1cnc1ccc(-c3cnc(OCCCN4CCCCC4)c(NS(=O)(=O)C4CC4)c3)cc21` [Example 197, N-(5-(3-Methyl-2′-oxo-2′,3′-dihydrospiro[cyclobulane-1,1′-pyrrolo[2,3-c]quinolin]-8′-yl)-2-(3-(piperidin-1-yl)propoxy)pyridin-3-yl)cyclopropanesulfonamide hydrochloride], the 50% inhibitory concentration (IC50) against ATM (setting [1]) was 1 to 100 nM; against DNA-PK (ATP 20 μM), 0.5 to 1 nM.
For the compound `CC(C)NCCOc1ncc(-c2cc3c(cc2F)ncc2c3[C@]3(C[C@@H](c4ccccn4)C3)C(=O)N2C)cc1NS(C)(=O)=O` [Example 435, trans-N-(5-(7′-Fluoro-3′-methyl-2′-oxo-3-(pyridin-2-yl)-2′,3′-dihydrospiro[cyclobutane-1,1′-pyrrolo[2,3-c]quinolin]-8′-yl)-2-(2-(isopropylamino)ethoxy)pyridin-3-yl)methanesulfonamide], the figures for the IC50 at ATM (setting [2]) and against DNA-PK (20 μM ATP) were more than 100 nM and 1 to 100 nM, respectively.
The corresponding values for `CC(C)NCCOc1ncc(-c2cc3c4c(cnc3cc2F)N(C)C(=O)C42CN(c3ccc(Cl)cc3)C2)cc1NS(C)(=O)=O` [Example 523, N-(5-(1-(4-Chlorophenyl)-7′-fluoro-3′-methyl-2′-oxo-2′,3′-dihydrospiro[azetidine-3,1′-pyrrolo[2,3-c]quinolin]-8′-yl)-2-(2-(isopropylamino)ethoxy)pyridin-3-yl)methanesulfonamide hydrochloride] are 1 to 100 nM and less than 0.5 nM.
For the compound `CN(C)CCCOc1ncc(-c2ccc3ncc4c(c3c2)C2(CC2)C(=O)N4C)cc1NS(=O)(=O)c1ccn(C)n1` [Example 112, N-(2-(3-(Dimethylamino)propoxy)-5-(3′-methyl-2′-oxo-2′,3′-dihydrospiro[cyclopropane-1,1′-pyrrolo[2,3-c]quinolin]-8′-yl)pyridin-3-yl)-1-methyl-1H-pyrazole-3-sulfonamide], the IC50 on ATM (setting [1]) was 1 to 100 nM; against DNA-PK (ATP 20 μM) it was less than 0.5 nM.
